Values joined by “and” are separate entries in the source; they are usually repeats but may differ in a detail not shown here. Equal values may be shown once. Read-outs that look alike come from different tables or passages of the source.
Assays:
FLT3D835Y = target: T1, FLT3D835Y (Homo sapiens, UniProt P36888, D835Y); assay: Biochemical kinase selectivity assay, FLT3 D835Y; conditions: in vitro kinase assay; read-out: FLT3D835Y IC50 (nM) ± SD
T1 construct: the biochemical assay only contains the kinase domain with a single, D835Y point mutation
T1 sequence (P36888 610-943 D835Y limits assumed): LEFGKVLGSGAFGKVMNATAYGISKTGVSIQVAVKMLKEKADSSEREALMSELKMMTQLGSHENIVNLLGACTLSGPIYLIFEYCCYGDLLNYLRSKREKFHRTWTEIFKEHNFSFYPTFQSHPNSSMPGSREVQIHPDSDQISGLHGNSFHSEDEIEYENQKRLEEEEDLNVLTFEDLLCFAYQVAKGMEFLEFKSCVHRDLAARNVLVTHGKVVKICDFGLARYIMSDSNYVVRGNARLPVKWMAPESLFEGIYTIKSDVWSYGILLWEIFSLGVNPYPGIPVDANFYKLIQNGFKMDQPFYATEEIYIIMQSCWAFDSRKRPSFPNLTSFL
Experimental: Kinase activity was measured in a microfluidics assay that monitors the separation of a phosphorylated product from substrate[31],[32]. The assay was run using a 12-sipper chip on a Caliper EZ Reader II (PerkinElmer®, Walthman, USA) with separation buffer (100 mM HEPES, 10 mM EDTA, 0.015% Brij-35, 0.1% CR-3 [PerkinElmer®, Walthman, USA]). In 96-well polypropylene plates (Greiner, Frickenhausen, Germany) compound stocks (20 mM in DMSO) were diluted into kinase buffer (50 mM HEPES, 0.075% Brij-35, 0.1% Tween 20, 2 mM DTT, 10 mM MgCl2, and 0.02% NaN3) in 12-point ½log dilutions (2 mM–6.32 nM). After, 1 μL was transferred into a 384-well polypropylene assay plate (Greiner, Frickenhausen, Germany). […] Percent inhibition was measured for each well comparing starting peptide to phosphorylated product peaks relative to the baseline. […] IC50 values were generated in duplicate and error was calculated from the standard deviation between values.
S10. Biochemical Inhibition Assay:1,2 Kinase activity was measured in a microfluidics assay that monitors the separation of a phosphorylated product from substrate. The assay was run using a 12-sipper chip on a Caliper EZ Reader II (PerkinElmer®, Walthman, USA) with separation buffer (100 mM HEPES, 10 mM EDTA, 0.015% Brij-35, 0.1% CR-3 [PerkinElmer®, Walthman, USA]). […]

c-KIT = c-KIT (Homo sapiens, UniProt P10721); assay: Biochemical kinase selectivity assay, c-KIT
Ba/F3 FLT3-ITD = assay: Cell proliferation (CellTiter-Glo, 48 h), Ba/F3 FLT3-ITD; type: cell-based
Description: (§1) Stable BaF3 populations expressing activated FLT3 were generated by retroviral spinfection with the appropriate mutated plasmid followed by selection and growth factor withdrawal as previously described. The BaF3 cell line was originally obtained from the laboratory of Charles Sawyers and has not been authenticated. MV411 and Molm14 cells were obtained from the laboratory of Scott Kogan and authenticated by Promega STR analysis in June 2013. All cell lines were mycoplasma-free. Cells were incubated with compounds for 48 hours and proliferation was assessed using CellTiter-Glo (Promega; Madison, WI) according to the manufacturer’s recommendation on a SpectraMax M3 microplate reader using SpectraMax Software (Molecular Devices; Sunnyvale, CA). All cell viability data shown is reflective of experiments performed a minimum of three times. […]
(§2) S13. Cell Cultures: Stable BaF3 populations expressing activated FLT3 were generated by retroviral spinfection with the appropriate mutated plasmid followed by selection and growth factor withdrawal as previously described .4 The BaF3 cell line was originally obtained from the laboratory of Charles Sawyers and has not been authenticated. MV411 and Molm14 cells were obtained from the laboratory of Scott Kogan and authenticated by Promega STR analysis in June
(§3) 2013. All cell lines were mycoplasma -free. Cells were incubated with compounds for 48 hours and proliferation was assessed using CellTiter -Glo (Promega; Madison, WI) according to the manufacturer’s recommendation on a SpectraMax M3 microplate reader using SpectraMax Software (Molecular Devices; Sunnyvale, CA). All cell viability data shown is reflective of experiments performed a minimum of three times.

Molm14^D835Y = assay: Cell proliferation (CellTiter-Glo, 48 h), Molm14 D835Y; type: cell-based; conditions: for GI50: Homo sapiens, MOLM-14, Molm14^D835Y, 48 hours
Description: as §1, §2, §3

Molm14^F691L = assay: Cell proliferation (CellTiter-Glo, 48 h), Molm14 F691L; type: cell-based; conditions: for GI50: Homo sapiens, MOLM-14, Molm14^F691L, 48 hours
Description: as §1, §2, §3

Sequence of c-KIT (P10721 26-976): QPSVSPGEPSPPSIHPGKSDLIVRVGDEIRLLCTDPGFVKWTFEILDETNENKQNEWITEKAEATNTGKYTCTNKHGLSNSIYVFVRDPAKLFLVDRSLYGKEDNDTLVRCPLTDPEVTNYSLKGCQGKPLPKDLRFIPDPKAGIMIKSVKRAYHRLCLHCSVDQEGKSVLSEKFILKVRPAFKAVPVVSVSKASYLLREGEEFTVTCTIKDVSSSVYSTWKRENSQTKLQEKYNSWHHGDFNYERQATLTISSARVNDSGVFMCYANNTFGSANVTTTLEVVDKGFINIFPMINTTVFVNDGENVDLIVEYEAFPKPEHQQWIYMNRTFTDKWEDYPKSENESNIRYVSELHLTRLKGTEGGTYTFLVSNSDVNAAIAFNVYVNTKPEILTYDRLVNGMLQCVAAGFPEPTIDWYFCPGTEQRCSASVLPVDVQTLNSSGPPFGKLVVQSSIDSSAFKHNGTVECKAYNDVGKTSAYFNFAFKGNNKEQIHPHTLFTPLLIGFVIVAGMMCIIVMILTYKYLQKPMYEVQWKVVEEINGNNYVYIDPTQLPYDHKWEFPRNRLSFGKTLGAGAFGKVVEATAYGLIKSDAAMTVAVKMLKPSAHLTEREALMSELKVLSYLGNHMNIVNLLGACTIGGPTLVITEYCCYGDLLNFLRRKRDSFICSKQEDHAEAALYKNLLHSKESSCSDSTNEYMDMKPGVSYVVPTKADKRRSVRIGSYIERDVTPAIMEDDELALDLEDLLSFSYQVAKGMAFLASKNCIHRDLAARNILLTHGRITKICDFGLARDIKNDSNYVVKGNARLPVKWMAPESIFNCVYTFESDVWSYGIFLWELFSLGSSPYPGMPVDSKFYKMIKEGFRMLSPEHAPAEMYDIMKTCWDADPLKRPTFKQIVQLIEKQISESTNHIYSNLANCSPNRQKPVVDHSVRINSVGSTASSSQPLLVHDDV

Row | IC50 (FLT3D835Y) | IC50 (c-KIT; as printed in Fig. 2, read-out: cKit IC50) [nM] | IC50 (c-KIT; in vitro kinase assay, read-out: c-KIT IC50 (nM) ± SD) [nM] | selectivity for FLT3 over c-KIT (c-KIT; in vitro kinase assays) [fold] | GI50 (Ba/F3 FLT3-ITD) [µM] | GI50 (Molm14^D835Y) [µM] | GI50 (Molm14^F691L) [µM] | SMILES | fold reduction in cellular activity against Molm14^D835Y (Molm14^D835Y; relative to the parental FLT3-ITD cells) | fold reduction in cellular activity against Molm14^F691L (Molm14^F691L; gatekeeper mutation, relative to the parental FLT3-ITD cells)
1 | 72.5 nM and 72 nM | 8800 | 8800 | > 500 | 0.131 | 1.84 | 1.34 | Cn1nc(C(C)(C)C)cc1NC(=O)Cc1ccc(Nc2cc(Nc3ccc(S(C)(=O)=O)cc3)ncn2)cc1 [13a, 2-(4-(6-(4-(Methylsulfonyl)phenylamino)pyrimidin-4-ylamino)phenyl)-N-(3-tert-butyl-1-methyl-1H-pyrazol-5-yl)acetamide] | ~ 10 fold | ~ 10 fold
2 | 13700 ± 234 nM | – | – | – | 0.0405 | 2.61 | 2.14 | CC(C)(C)c1cc(NC(=O)Cc2ccc(Nc3cc(Nc4ccc(S(C)(=O)=O)cc4)ncn3)cc2)no1 [13k, 2-(4-(6-(4-(Methylsulfonyl)phenylamino)pyrimidin-4-ylamino)phenyl)-N-(5-tert-butylisoxazol-3-yl)acetamide] | – | –

Reference: article PMC5829162, “Rational Design, Synthesis and Biological Evaluation of Pyrimidine-4,6-diamine derivatives as Type-II inhibitors of FLT3 Selective Against c-KIT” (Scientific Reports, 2018)
